Results taken from patent US20260001847A1, “HERBICIDAL QUINOLONE DERIVATIVES” (SYNGENTA CROP PROTECTION AG, priority 2022, published 2026).
Marks after values point to notes of the source that are not given here.

Experiments:
Type in all cases: in vivo
[1] = system: Ipomoea hederacea (IPOHE); assay: Pre-emergence Test; settings: evaluated after 13 days
Setaria faberi (SETFA) [2] = assay: Pre-emergence Test; settings: 1000 g/ha, evaluated after 13 days
[3] = system: Echinochloa crus-galli (ECHCG); assay: Pre-emergence Test; settings: 1000 g/ha, evaluated after 13 days
Zea mays (ZEAMX) [4] = assay: Pre-emergence Test; settings: 1000 g/ha, evaluated after 13 days
[5] = system: Amaranthus retoflexus (AMARE); assay: Pre-emergence Test; settings: evaluated after 13 days
[6] = system: Amaranthus palmeri (AMAPA); assay: Pre-emergence Test; settings: evaluated after 13 days
[7] = system: Amaranthus palmeri (AMAPA); assay: Post-emergence Test; settings: evaluated after 13 days
Experimental: (§1) Seeds of a variety of test species are sown in standard soil in pots (Abutilon theophrasti (ABUTH), Ipomoea hederacea (IPOHE). Setaria faberi (SETFA), Echinochloa crus-galli (ECHCG), Zea mays (ZEAMX), Amaranthus retoflexus (AMARE), Solanum nigrum (SOLNI), Lolium perenne (LOLPE), Amaranthus palmeri (AMAPA)). After 8 days cultivation under controlled conditions in a glasshouse (at 24° C./16° C., day/night-; 14 hours light; 65% humidity), the plants are sprayed with an aqueous spray solution derived from the formulation of the technical active ingredient in acetone/water (50:50) solution containing 0.5% Tween 20 (polyoxyethylene sorbitan monolaurate, CAS RN 9005-64-5). Compounds are applied at 1000 g/ha unless otherwise stated. The test plants are then grown in a glasshouse under controlled conditions in a glasshouse (at 24° C./16° C., day/night; 14 hours light; 65% humidity) and watered twice daily. After 13 days the test is evaluated for the percentage damage caused to the plant. The biological activities are shown in the following table on a five-point scale (5=81-100%; 4=61-80%; 3=41-60%; 2=21-40%; 1=0-20%; -=not tested).

[8] = system: Amaranthus retoflexus (AMARE); assay: Post-emergence Test; settings: evaluated after 13 days
Experimental: as §1

[9] = system: Echinochloa crus-galli (ECHCG); assay: Post-emergence Test; settings: evaluated after 13 days
Experimental: as §1

[10] = system: Ipomoea hederacea (IPOHE); assay: Post-emergence Test; settings: evaluated after 13 days
Experimental: as §1

Setaria faberi (SETFA) [11] = assay: Post-emergence Test; settings: evaluated after 13 days
Experimental: as §1

Zea mays (ZEAMX) [12] = assay: Post-emergence Test; settings: evaluated after 13 days
Experimental: as §1

SMILES | percentage damage caused to the plant, IPOHE ([1]; 1000 g/ha) | percentage damage caused to the plant, SETFA (Setaria faberi (SETFA) [2]) | percentage damage caused to the plant, ECHCG [3] | percentage damage caused to the plant, ZEAMX (Zea mays (ZEAMX) [4]) | percentage damage caused to the plant, AMAPA ([7]; 1000 g/ha) | percentage damage caused to the plant, AMARE ([8]; 1000 g/ha) | percentage damage caused to the plant, ECHCG ([9]; 1000 g/ha) | percentage damage caused to the plant, IPOHE ([10]; 1000 g/ha) | percentage damage caused to the plant, SETFA (Setaria faberi (SETFA) [11]; 1000 g/ha) | percentage damage caused to the plant, ZEAMX (Zea mays (ZEAMX) [12]; 1000 g/ha) | also measured
CCn1c(-c2ccc(Cl)c(Cl)c2)c(C(=O)O)c(=O)c2c(Br)cccc21 [Compound 4, 5-bromo-2-(3,4-dichlorophenyl)-1-ethyl-4-oxo-quinoline-3-carboxylic acid] | 1 (1=0-20%) | 5 (5=81-100%) | 5 (5=81-100%) | 3 (3=41-60%) | 0 | 0 | 1 (1=0-20%) | 1 (1=0-20%) | 1 (1=0-20%) | 1 (1=0-20%) | percentage damage caused to the plant, AMARE ([5]; 1000 g/ha): 1 (1=0-20%); percentage damage caused to the plant, AMAPA ([6]; 1000 g/ha): 2 (2=21-40%)
CCn1c(-c2ccc(Cl)c(Cl)c2)c(C(=O)O)c(=O)c2cc(Cl)ccc21 [Compound 5, 6-chloro-2-(3,4-dichlorophenyl)-1-ethyl-4-oxo-quinoline-3-carboxylic acid] | 0 | 2 (2=21-40%) | 0 | 1 (1=0-20%) | 1 (1=0-20%) | 1 (1=0-20%) | – | 1 (1=0-20%) | 4 (4=61-80%) | 2 (2=21-40%) | –
CCn1c(-c2ccc(Cl)c(Cl)c2)c(C(=O)O)c(=O)c2cc(F)ccc21 [Compound 6, 2-(3,4-dichlorophenyl)-1-ethyl-6-fluoro-4-oxo-quinoline-3-carboxylic acid] | 0 | 5 (5=81-100%) | 5 (5=81-100%) | 0 | 3 (3=41-60%) | 1 (1=0-20%) | 4 (4=61-80%) | 3 (3=41-60%) | 4 (4=61-80%) | 4 (4=61-80%) | –
CCn1c(-c2ccc(Cl)c(Cl)c2)c(C(=O)O)c(=O)c2cc(C#N)ccc21 [Compound 7, 6-cyano-2-(3,4-dichlorophenyl)-1-ethyl-4-oxo-quinoline-3-carboxylic acid] | 1 (1=0-20%) | 5 (5=81-100%) | 5 (5=81-100%) | 3 (3=41-60%) | 4 (4=61-80%) | 3 (3=41-60%) | – | 2 (2=21-40%) | 4 (4=61-80%) | 3 (3=41-60%) | –
CCn1c(-c2ccc(Cl)c(Cl)c2)c(C(=O)O)c(=O)c2cc(Br)ccc21 [Compound 8, 6-bromo-2-(3,4-dichlorophenyl)-1-ethyl-4-oxo-quinoline-3-carboxylic acid] | 1 (1=0-20%) | 5 (5=81-100%) | 5 (5=81-100%) | 2 (2=21-40%) | 1 (1=0-20%) | 0 | 4 (4=61-80%) | 4 (4=61-80%) | 4 (4=61-80%) | 4 (4=61-80%) | percentage damage caused to the plant, AMARE ([5]; 1000 g/ha): 1 (1=0-20%); percentage damage caused to the plant, AMAPA ([6]; 1000 g/ha): 2 (2=21-40%)
CCn1c(-c2ccc(Cl)c(Cl)c2)c(C(=O)O)c(=O)c2cc(-c3ccc(F)cc3)ccc21 [Compound 9, 2-(3,4-dichlorophenyl)-1-ethyl-6-(4-fluorophenyl)-4-oxo-quinoline-3-carboxylic acid] | 1 (1=0-20%) | 4 (4=61-80%) | 3 (3=41-60%) | 1 (1=0-20%) | 2 (2=21-40%) | 2 (2=21-40%) | 0 | 2 (2=21-40%) | 0 | 0 | –
CCn1c(-c2ccc(Cl)c(Cl)c2)c(C(=O)O)c(=O)c2cc(C(N)=O)ccc21 [Compound 10, 6-carbamoyl-2-(3,4-dichlorophenyl)-1-ethyl-4-oxo-quinoline-3-carboxylic acid] | 0 | 0 | 0 | 2 (2=21-40%) | 4 (4=61-80%) | 2 (2=21-40%) | – | 1 (1=0-20%) | 4 (4=61-80%) | 2 (2=21-40%) | –
CCn1c(-c2ccc(Cl)c(Cl)c2)c(C(=O)O)c(=O)c2ccc(C(F)(F)F)cc21 [Compound 13, 2-(3,4-dichlorophenyl)-1-ethyl-4-oxo-7-(trifluoromethyl)quinoline-3-carboxylic acid] | 0 | 0 | 0 | 0 | 1 (1=0-20%) | 2 (2=21-40%) | 2 (2=21-40%) | 0 | 1 (1=0-20%) | 1 (1=0-20%) | –
CCn1c(-c2ccc(Cl)c(Cl)c2)c(C(=O)O)c(=O)c2cc(C(F)(F)F)ccc21 [Compound 16, 2-(3,4-dichlorophenyl)-1-ethyl-4-oxo-6-(trifluoromethyl)quinoline-3-carboxylic acid] | 1 (1=0-20%) | 5 (5=81-100%) | 5 (5=81-100%) | 1 (1=0-20%) | 0 | 0 | 4 (4=61-80%) | 2 (2=21-40%) | 4 (4=61-80%) | 3 (3=41-60%) | percentage damage caused to the plant, AMARE ([5]; 1000 g/ha): 1 (1=0-20%)
CCn1c(-c2ccc(Cl)c(Cl)c2)c(C(=O)O)c(=O)c2c(C#N)cccc21 [Compound 17, 5-cyano-2-(3,4-dichlorophenyl)-1-ethyl-4-oxo-quinoline-3-carboxylic acid] | – | – | – | – | – | – | – | – | – | – | percentage damage caused to the plant, IPOHE ([1]; 250 g/ha): 1* (1=0-20%); percentage damage caused to the plant, AMARE ([5]; 250 g/ha): 1* (1=0-20%); percentage damage caused to the plant, AMAPA ([6]; 250 g/ha): 1* (1=0-20%); percentage damage caused to the plant, AMAPA ([7]; 250 g/ha): 2* (2=21-40%); percentage damage caused to the plant, AMARE ([8]; 250 g/ha): 2* (2=21-40%); percentage damage caused to the plant, ECHCG ([9]; 250 g/ha): 1* (1=0-20%); percentage damage caused to the plant, IPOHE ([10]; 250 g/ha): 2* (2=21-40%); percentage damage caused to the plant, SETFA (Setaria faberi (SETFA) [11]; 250 g/ha): 1* (1=0-20%); percentage damage caused to the plant, ZEAMX (Zea mays (ZEAMX) [12]; 250 g/ha): 0*
CC(=O)c1cccc2c1c(=O)c(C(=O)O)cn2-c1ccc(OC(F)(F)F)cc1 [Compound 19, 5-acetyl-4-oxo-1-[4-(trifluoromethoxy)phenyl]quinoline-3-carboxylic acid] | 0 | 3 (3=41-60%) | 3 (3=41-60%) | 0 | 2 (2=21-40%) | 0 | 4 (4=61-80%) | 1 (1=0-20%) | 3 (3=41-60%) | 3 (3=41-60%) | –
